Experimental data from US20190119213A1, “OXO-PYRIDINE-DERIVATIVES AS FACTOR XIA INHIBITORS FOR THE TREATMENT OF THROMBOSIS” (BAYER PHARMA AKTIENGESELLSCHAFT, priority 2015, published 2019).

Key:
[1] = molecular target: T1, human plasma kallikrein (Homo sapiens, UniProt P03952); assay: Determination of the plasma kallikrein activity (fluorogenic peptide substrate); type: biochemical; settings: plasma kallikrein from Kordia 0.6 nM; substrate H-Pro-Phe-Arg-AMC; 30 min at 22° C.
T1 construct: purchased Kordia
Procedure: To determine the plasma kallikrein inhibition of the substances according to the invention, a biochemical test system is used which utilizes the reaction of a peptidic plasma kallikrein substrate to determine the enzymatic activity of human plasma kallikrein. Here, plasma kallikrein cleaves from the peptic plasma kallikrein substrate the C-terminal aminomethylcoumarin (AMC), the fluorescence of which is measured. The determinations are carried out in microtitre plates.
Test substances are dissolved in dimethyl sulphoxide and serially diluted in dimethyl sulphoxide (3000 μM to 0.0078 μM; resulting final concentrations in the test: 50 μM to […] each case 1 μl of the diluted substance solutions is placed into the wells of white microtitre plates from Greiner (384 wells). 20 μl of assay buffer (50 mM Tris/HCl pH 7.4; 100 mM sodium chloride solution; 5 mM of calcium chloride solution; 0.1% of bovine serum albumin) and 20 μl of plasma kallikrein from Kordia (0.6 nM in assay buffer) are then added successively. After 15 min of incubation, the enzyme reaction is started by addition of 20 μl of the substrate H-Pro-Phe-Arg-AMC dissolved in assay buffer (10 μM in assay buffer) from Bachem, the mixture is incubated at room temperature (22° C.) for 30 min and fluorescence is then measured (excitation: 360 nm, emission: 460 nm). The measured emissions of the test batches with test substance are compared to those of control batches without test substance (only dimethyl sulphoxide instead of test substance in dimethyl sulphoxide), and IC50 values are calculated from the concentration/activity relationships.

[2] = molecular target: T2, human factor XIa (Homo sapiens, UniProt P03951); assay: Measurement of FXIa inhibition (fluorogenic peptide substrate); type: biochemical; settings: factor XIa from Kordia 0.45 nM; substrate Boc-Glu(OBzl)-Ala-Arg-AMC; 30 min at 22° C.
T2 construct: purchased Kordia
Procedure: The factor XIa inhibition of the inventive substances is determined using a biochemical test system which utilizes the reaction of a peptidic factor XIa substrate to determine the enzymatic activity of human factor XIa. Here, factor XIa cleaves from the peptic factor XIa substrate the C-terminal aminomethylcoumarin (AMC), the fluorescence of which is measured. The determinations are carried out in microtitre plates.
Test substances are dissolved in dimethyl sulphoxide and serially diluted in dimethyl sulphoxide (3000 μM to 0.0078 μM; resulting final concentrations in the test: 50 μM to 0.00013 μM). In each case 1 μl of the diluted substance solutions is placed into the wells of white microtitre plates from Greiner (384 wells). 20 μl of assay buffer (50 mM of Tris/HCl pH 7.4; 100 mM of sodium chloride; 5 mM of calcium chloride; 0.1% of bovine serum albumin) and 20 μl of factor XIa from Kordia (0.45 nM in assay buffer) are then added successively. After 15 min of incubation, the enzyme reaction is started by addition of 20 μl of the factor XIa substrate Boc-Glu(OBzl)-Ala-Arg-AMC dissolved in assay buffer (10 μM in assay buffer) from Bachem, the mixture is incubated at room temperature (22° C.) for 30 min and fluorescence is then measured (excitation: 360 nm, emission: 460 nm). The measured emissions of the test batches with test substance are compared to those of control batches without test substance (only dimethyl sulphoxide instead of test substance in dimethyl sulphoxide), and IC50 values are calculated from the concentration/activity relationships.

T1 sequence (P03952 391-638 limits assumed): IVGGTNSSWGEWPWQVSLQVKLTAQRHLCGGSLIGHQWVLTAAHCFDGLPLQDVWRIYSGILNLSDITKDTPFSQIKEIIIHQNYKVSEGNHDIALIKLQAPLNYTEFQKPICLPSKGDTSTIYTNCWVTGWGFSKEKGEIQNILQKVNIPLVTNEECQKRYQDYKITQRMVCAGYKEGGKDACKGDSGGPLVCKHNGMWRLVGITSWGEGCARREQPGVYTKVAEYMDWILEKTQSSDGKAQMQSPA
T1 sequence (P03952 20-390 partner limits assumed): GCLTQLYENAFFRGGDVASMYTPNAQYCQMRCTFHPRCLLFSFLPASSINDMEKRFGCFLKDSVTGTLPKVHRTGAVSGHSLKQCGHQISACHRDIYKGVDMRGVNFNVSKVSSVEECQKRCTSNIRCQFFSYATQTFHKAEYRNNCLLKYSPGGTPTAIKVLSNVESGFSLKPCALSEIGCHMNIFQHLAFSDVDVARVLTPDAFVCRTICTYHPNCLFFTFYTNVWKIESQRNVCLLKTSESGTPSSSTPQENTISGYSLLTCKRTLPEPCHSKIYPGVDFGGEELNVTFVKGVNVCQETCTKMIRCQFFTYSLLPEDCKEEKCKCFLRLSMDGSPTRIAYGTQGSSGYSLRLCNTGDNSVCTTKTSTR
T2 sequence (P03951 388-625 limits assumed): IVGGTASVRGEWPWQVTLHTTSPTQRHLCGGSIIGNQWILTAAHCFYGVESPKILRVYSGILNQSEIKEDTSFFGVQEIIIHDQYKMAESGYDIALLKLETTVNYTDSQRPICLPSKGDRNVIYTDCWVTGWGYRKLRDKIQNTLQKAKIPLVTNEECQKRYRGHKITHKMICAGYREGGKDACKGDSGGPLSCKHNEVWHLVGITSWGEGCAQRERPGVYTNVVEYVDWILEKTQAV
T2 sequence (P03951 19-387 partner limits assumed): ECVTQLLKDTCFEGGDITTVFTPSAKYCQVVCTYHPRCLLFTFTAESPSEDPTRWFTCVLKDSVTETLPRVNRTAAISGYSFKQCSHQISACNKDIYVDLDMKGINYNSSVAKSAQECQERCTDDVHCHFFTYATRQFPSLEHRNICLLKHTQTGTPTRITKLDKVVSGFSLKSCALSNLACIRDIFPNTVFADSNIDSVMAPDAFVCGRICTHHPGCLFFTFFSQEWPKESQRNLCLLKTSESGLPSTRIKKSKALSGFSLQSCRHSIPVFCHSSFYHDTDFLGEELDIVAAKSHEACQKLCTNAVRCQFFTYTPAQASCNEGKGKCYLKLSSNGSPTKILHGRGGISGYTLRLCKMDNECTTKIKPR

| IC50 [1] | IC50 [2] | Compound |
| --- | --- | --- |
| 5.6 nM | 1.2 nM | COc1cn(C(CCOC(C)C)C(=O)Nc2ccc(C(=O)O)cc2)c(=O)cc1-c1cc(Cl)ccc1C#N (racemic) [Example 1, 4-({2-[4-(5-Chloro-2-cyanophenyl)-5-methoxy-2-oxopyridin-1(2H)-yl]-4-isopropoxybutanoyl}-amino)benzoic acid (racemate)] |
| 2.6 nM | 0.6 nM | COc1cn(C(CCOC2CCC2)C(=O)Nc2ccc(C(=O)O)cc2)c(=O)cc1-c1cc(Cl)ccc1C#N (racemic) [Example 3, 4-({2-[4-(5-Chloro-2-cyanophenyl)-5-methoxy-2-oxopyridin-1(2H)-yl]-4-(cyclobutyloxy)butanoyl}amino)benzoic acid (racemate)] |
| 6.5 nM | 1 nM | COc1cn(C(CCOC2(C)CCC2)C(=O)Nc2ccc(C(=O)O)cc2)c(=O)cc1-c1cc(Cl)ccc1C#N (racemic) [Example 9, 4-({2-[4-(5-Chloro-2-cyanophenyl)-5-methoxy-2-oxopyridin-1(2H)-yl]-4-[(1-methylcyclobutyl)oxy]butanoyl}amino)benzoic acid (racemate)] |
| 45 nM | 2.2 nM | COc1cn(C(CCOC2(C)CCC2)C(=O)Nc2ccc(C(=O)O)cc2)c(=O)cc1-c1cc(Cl)ccc1OC(F)F (racemic) [Example 11, 4-[(2-{4-[5-Chloro-2-(difluoromethoxy)phenyl]-5-methoxy-2-oxopyridin-1(2H)-yl}-4-[(1-methylcyclobutyl)oxy]butanoyl)amino]benzoic acid (racemate)] |
| 4.8 nM | 0.9 nM | COc1cn([C@@H](CCOC(C)C)C(=O)Nc2ccc(C(=O)O)cc2)c(=O)cc1-c1cc(Cl)ccc1C#N (single isomer, unassigned; enantiomer 2) [Example 2] |
| 1.4 nM | 0.4 nM | COc1cn([C@@H](CCOC2CCC2)C(=O)Nc2ccc(C(=O)O)cc2)c(=O)cc1-c1cc(Cl)ccc1C#N (single isomer, unassigned; enantiomer 2) [Example 4] |
| 2.2 nM | 0.3 nM | COc1cn([C@@H](CCOC(C)(C)C)C(=O)Nc2ccc(C(=O)O)cc2)c(=O)cc1-c1cc(Cl)ccc1C#N (single isomer, unassigned; enantiomer 2) [Example 6] |
| 29 nM | 1.5 nM | COc1cn([C@@H](CCOC(C)(C)C)C(=O)Nc2ccc(C(=O)O)cc2)c(=O)cc1-c1cc(Cl)ccc1OC(F)F (single isomer, unassigned; enantiomer 2) [Example 8] |
| 2.4 nM | 0.4 nM | COc1cn([C@@H](CCOC2(C)CCC2)C(=O)Nc2ccc(C(=O)O)cc2)c(=O)cc1-c1cc(Cl)ccc1C#N (single isomer, unassigned; enantiomer 2) [Example 10] |
| 27 nM | 1.5 nM | COc1cn([C@@H](CCOC2(C)CCC2)C(=O)Nc2ccc(C(=O)O)cc2)c(=O)cc1-c1cc(Cl)ccc1OC(F)F (single isomer, unassigned; enantiomer 2) [Example 12] |

| Compound | IC50 [1] | IC50 [2] |
| --- | --- | --- |
| COc1cn(C(CCOC(C)(C)C)C(=O)Nc2ccc(C(=O)O)cc2)c(=O)cc1-c1cc(Cl)ccc1C#N (racemic) [Example 5, 4-({4-tert-Butoxy-2-[4-(5-chloro-2-cyanophenyl)-5-methoxy-2-oxopyridin-1(2H)-yl]butanoyl}amino)benzoic acid (racemate)] | 3.9 nM | 0.7 nM |
| COc1cn(C(CCOC(C)(C)C)C(=O)Nc2ccc(C(=O)O)cc2)c(=O)cc1-c1cc(Cl)ccc1OC(F)F (racemic) [Example 7, 4-[(4-tert-Butoxy-2-{4-[5-chloro-2-(difluoromethoxy)phenyl]-5-methoxy-2-oxopyridin-1(2H)-yl}butanoyl)amino]benzoic acid (racemate)] | 38 nM | 2.9 nM |
